Data on 22 compounds can be found in US6608061B2, “Bisaryl compound and medicament for cancer treatment comprising the same” (Kyoma Hakko Kogyo Co., Ltd., priority 1997, dated 2003).

Broadly, the pIC50 is the IC50 on a negative log10 scale, so that one unit is a factor of ten. Usually IC50 stands for the concentration that gives 50% inhibition. As a reminder, the melting point is the temperature of the solid-liquid transition.

Structures are written as SMILES. pIC50: −log10 of the molar value. Where two headings read alike, the source gives them in different places.

The target in data set [1] is T1, human RNR (purified R1 and R2 subunits) (Homo sapiens, UniProt P23921+P31350).
T1 construct: made in house; host or cells: Escherichia coli BL21(λDE3)pLysS, plasmids pETR1 and pETR2 (pET3a backbone)
T1 sequence (P23921 1-792): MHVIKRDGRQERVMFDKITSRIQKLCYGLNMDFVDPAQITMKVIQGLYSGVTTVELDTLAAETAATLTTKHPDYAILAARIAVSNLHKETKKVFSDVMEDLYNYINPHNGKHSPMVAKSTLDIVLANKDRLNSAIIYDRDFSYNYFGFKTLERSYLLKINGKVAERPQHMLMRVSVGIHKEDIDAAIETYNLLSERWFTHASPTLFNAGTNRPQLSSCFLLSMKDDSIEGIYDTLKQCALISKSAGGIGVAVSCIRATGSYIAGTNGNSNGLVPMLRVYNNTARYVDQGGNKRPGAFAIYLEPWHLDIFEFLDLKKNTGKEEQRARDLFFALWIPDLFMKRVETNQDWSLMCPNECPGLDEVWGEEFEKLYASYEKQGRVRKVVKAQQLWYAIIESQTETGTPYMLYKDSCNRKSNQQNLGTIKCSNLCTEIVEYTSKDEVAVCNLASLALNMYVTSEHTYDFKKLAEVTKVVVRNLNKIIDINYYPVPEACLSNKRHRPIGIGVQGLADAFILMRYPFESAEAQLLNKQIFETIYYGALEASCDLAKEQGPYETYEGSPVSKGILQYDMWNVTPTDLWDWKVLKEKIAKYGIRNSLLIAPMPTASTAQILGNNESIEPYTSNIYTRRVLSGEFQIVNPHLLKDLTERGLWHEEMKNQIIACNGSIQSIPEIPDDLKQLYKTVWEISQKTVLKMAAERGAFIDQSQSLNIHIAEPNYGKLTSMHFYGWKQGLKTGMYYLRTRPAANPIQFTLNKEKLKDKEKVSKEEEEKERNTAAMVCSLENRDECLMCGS
T1 sequence (P31350 1-389): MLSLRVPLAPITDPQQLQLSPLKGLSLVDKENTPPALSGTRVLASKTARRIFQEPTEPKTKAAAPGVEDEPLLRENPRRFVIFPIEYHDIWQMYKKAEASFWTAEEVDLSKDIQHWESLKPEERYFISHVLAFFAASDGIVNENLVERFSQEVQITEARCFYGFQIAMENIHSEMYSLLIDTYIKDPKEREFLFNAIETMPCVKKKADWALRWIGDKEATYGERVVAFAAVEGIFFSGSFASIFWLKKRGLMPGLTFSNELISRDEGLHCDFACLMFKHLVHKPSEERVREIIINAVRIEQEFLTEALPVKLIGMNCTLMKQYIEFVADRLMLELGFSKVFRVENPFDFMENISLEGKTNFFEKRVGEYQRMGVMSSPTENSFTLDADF
The data set can be described thus: In vitro measurement of human RNR inhibitory activity (conversion of CDP to dCDP, HPLC). It is filed as biochemical. The conditions noted are these: 100 μM CDP, 37° C., 30 minutes, read-out: RNR Inhibition (IC50).

Data set [2] has as its system HeLa S3 cells. Nature of the data set: Test for growth inhibition of HeLa S3 cells. The settings on record: for pIC50: HeLa S3 cells, 72 hours with test compound, Cell Proliferation Kit II, read-out: Cell growth inhibition (IC50). It is filed as cell-based. As to the method: Test for Growth Inhibition of Hela S3 Cells
HeLa S3 cells prepared at 1×10^4 cells/ml in MEM culture medium containing 10% fetal bovine serum and 2 mM glutamine were added to each well of a 96-well microtiter plate (0.1 ml for each well). The cells were cultured at 37° C. in a CO2 incubator for 24 hours, and then 0.05 ml of test compound appropriately diluted with the above medium was added to each well, and then the mixture was cultured at 37° C. in a CO2 incubator for 72 hours. After the culture supernatant was removed, each well was washed with 0.1 ml of PBS buffer twice, and 0.1 ml of the aforementioned medium was added to each well again.
Cell Proliferation Kit II (Boehringer Mennheim) was used for measurement of cell number in each well. After a coloring reaction reagent was added, the plate was warmed to 37° C. in a CO2 incubator for 3 hours. Then, absorbances at 490 nm and 655 nm were measured by a microplate reader, and a value (difference of absorbance) was calculated for each well by subtracting the absorbance at […] from the absorbance at 490 nm. By comparing the differences of absorbance for cells without treatment and cells treated with a test compound at a known concentration, a concentration of test compound which inhibited the cell growth by 50% was calculated, and the value obtained was determined as IC50. The values of RNR inhibitory activity obtained in Example 8, and the values of cell growth inhibitory activity obtained in Example 9 are shown in the following tables (the compound numbers used in the tables correspond to the compound numbers shown in the aforementioned tables).

In data set [3] the test system is human ovary cancer A2780 cells. The data set can be described thus: Antineoplastic effect against human ovary cancer A2780 cells transplanted to nude mice. The conditions noted are these: Mus musculus, read-out: Antitumor activity T/C. In kind it is in vivo, nude mice BALB/cAJcl-nu. The text has this: Antineoplastic Effect Against Human Ovary Cancer A2780 Cells
2 mm cubes (tumor fragments of 8 mm^3) of human ovary cancer A2780 cells were subcutaneously transplanted to nude mice BALB/cAJcl-nu (CLEA JAPAN) in the abdomens. When the tumor volume reached to from 50 to 300 mm^3 after the transplantation, the mice were arbitrarily divided into groups each consisting of 5 mice, and intraperitoneally administered with a drug solution once a day for 5 days. After weighing compounds, the drug solution was prepared before use by dissolving the drug in 99.5% ethanol (final concentration: 5%, analytical grade, Kanto Kagaku) or N,N-dimethylacetamide (final concentration: 5%, analytical grade, Kanto Kagaku), adding CREMOPHOR EL (a derivative of caster oil and ethylene oxide, final concentration: 10%, Sigma Chemical) to the solution, and suspending the solution in physiological saline (Otsuka Physiological Saline for Injection, Otsuka Pharmaceutical). For evaluation of the effect, a tumor volume was calculated in accordance with Equation 1, a ratio of tumor volume (V) after the administration of drug solution to tumor volume (V0) before the administration of drug solution was calculation (V/V0), and the ratio was compared with that for the untreated group to determine T/C (Equation 2). In the table, administration dose, T/C and evaluation day are shown. [formula]

In data set [4] the test system is human lung cancer Lu-65 cells. Nature of the data set: Antineoplastic effect against human lung cancer Lu-65 cells transplanted to nude mice. The settings on record: Lu-65 s.c. in nude mice; 1000 (500 × 2) mg/kg/day intraperitoneally twice a day for 5 days; evaluation day 7. It is filed as in vivo, nude mice BALB/cAJcl-nu. An excerpt:
Antineoplastic Effect Against Human Lung Cancer Lu-65 Cells
2 mm cubes (tumor fragments of 8 mm^3) of human lung cancer Lu-65 cells were subcutaneously transplanted to nude mice BALB/cAJcl-nu (CLEA JAPAN) on their abdomens. When the tumor volume reached to from 50 to 300 mm^3 after the transplantation, the mice were arbitrarily divided into groups each consisting of 5 mice, and intraperitoneally administered with a drug solution twice a day for 5 days. After weighing compounds, the drug solution was prepared before use by dissolving the drug in 99.5% ethanol (final concentration: 5%, analytical grade, Kanto Kagaku), adding CREMOPHOR EL (a derivative of caster oil and ethylene oxide, final concentration: 10%, Sigma Chemical) to the solution, and suspending the solution in physiological saline (Otsuka Physiological Saline for Injection, Otsuka Pharmaceutical). For evaluation of the effect, a tumor volume was calculated in accordance with Equation 1, a ratio of tumor volume (V) after the administration of drug solution to tumor volume (V0) before the administration of drug solution was calculated (V/V0), and the ratio was compared with that for the untreated group to determine T/C (Equation 2). [formula]

The mark [5] stands for this setting: ip, 168 h, A2780 s.c. in nude mice, 500 mg/kg/day intraperitoneally once a day for 5 days, evaluation day 7.
The mark [6] stands for this setting: ip, 96 h, A2780 s.c. in nude mice, 500 mg/kg/day intraperitoneally once a day for 5 days, evaluation day 4.

On to `Oc1ccc(SCCOCCSc2ccc(O)cc2)cc1` [Compound 27], for which the pIC50 in data set [1] is 6.30. In addition, in data set [2] (Homo sapiens, HeLa S3, 72 h, read-out: Cell growth inhibition (IC50, μM)), the IC50 came out at 1.53 µM. The response vs control in vivo at 500 mg/kg/day in data set [3] (A2780, ip, 168 h) came to 46%. For the same compound, in data set [4], the “Antitumor activity T/C” value is listed as 0.25.
With `Oc1ccc(SCCN(O)CCSc2ccc(O)cc2)cc1` [Compound 48], the pIC50 is 5.76 in data set [1] and 5.29 in data set [2] (Homo sapiens, HeLa S3, 72 h). Moreover, the response vs control in vivo at 500 mg/kg/day in data set [3] (setting [5]) amounted to 54%.
On to `CCCN(CCSc1ccc(O)cc1)CCSc1ccc(O)cc1` [Compound 72], for which the pIC50 in data set [1] is 5.92; in data set [2] (Homo sapiens, HeLa S3, 72 h), 5.66. The response vs control in vivo at 500 mg/kg/day in data set [3] (setting [6]) is 50%.
The corresponding values for `N#CCN(CCSc1ccc(O)cc1)CCSc1ccc(O)cc1` [Compound 77] are 7.22, 5.62 and 54%.
Taken in the same sequence, the figures for `NC(=O)CCN(CCSc1ccc(O)cc1)CCSc1ccc(O)cc1` [Compound 78] were 6.51, 5.79 and 53%.
Taken in the same sequence, the figures for `CN(C)C(=O)CCN(CCSc1ccc(O)cc1)CCSc1ccc(O)cc1` [Compound 79] were 5.86, 5.51 and 40%.
Turning to `Oc1ccc(SCCN(CCSc2ccc(O)cc2)Cc2ccncc2)cc1` [Compound 91], the pIC50 in data set [1] is 5.77; in data set [2] (Homo sapiens, HeLa S3, 72 h), 5.57. Also, in data set [3] (setting [6]), the response vs control in vivo at 500 mg/kg/day turned out to be 48%.
Take `Oc1ccc(CN(CCSc2ccc(O)cc2)CCSc2ccc(O)cc2)cc1` [Compound 94]: the pIC50 in data set [1] is 6.34; in data set [2] (Homo sapiens, HeLa S3, 72 h) it was 5.40. The response vs control in vivo at 500 mg/kg/day in data set [3] (setting [5]) stood at 53%.
In the case of `NC(=O)CN(CCSc1ccc(O)cc1)CCSc1ccc(O)cc1` [Compound 97], the melting point lay in the range of 105 to 106 °C. Also, in data set [2], the pIC50 was 6.06. Further, the response vs control in vivo at 500 mg/kg/day in data set [3] (setting [5]) is 43%.
The compound `Oc1ccc(SCCN(CCSc2ccc(O)cc2)Cc2ccccn2)cc1` [Compound 100] showed a melting point of 80 to 81 °C. Besides, the pIC50 in data set [1] was 5.80. The pIC50 in data set [2] (Homo sapiens, HeLa S3, 72 h) was 5.30.
On to `OCCN(CCSc1ccc(O)cc1)CCSc1ccc(O)cc1` [Compound 102], for which the pIC50 in data set [1] was 6.16; in data set [2] (Homo sapiens, HeLa S3, 72 h), 5.85. Moreover, the response vs control in vivo at 500 mg/kg/day in data set [3] (setting [5]) amounted to 47%.
As to `COCCCN(CCSc1ccc(O)cc1)CCSc1ccc(O)cc1` [Compound 103], the pIC50 in data set [1] was 5.68; in data set [2] (Homo sapiens, HeLa S3, 72 h) it was 5.76. In data set [3] (setting [6]), the response vs control in vivo at 500 mg/kg/day is 50%.
The compound `Oc1ccc(SCCOCCSc2ccc(O)c(F)c2)cc1F` [Compound 190] registered a melting point of 87 to 88 °C. In addition, the pIC50 in data set [1] was 5.86. The pIC50 in data set [2] (Homo sapiens, HeLa S3, 72 h) is 4.77.
For the compound `CC(=O)Oc1ccc(SCCN(CCSc2ccc(OC(C)=O)cc2)CC(N)=O)cc1` [Compound 193], the pIC50 in data set [2] (Homo sapiens, HeLa S3, 72 h) was 6.44. In data set [3] (ip, 96 h, A2780 s.c. in nude mice, 250 mg/kg/day intraperitoneally once a day for 5 days, evaluation day 4), the response vs control in vivo at 250 mg/kg/day was 46%.
Regarding `NC(=O)C1CCCCN1C(=O)CN(CCSc1ccc(O)cc1)CCSc1ccc(O)cc1` (centres unmarked) [Compound 209], the pIC50 was 5.57 in data set [1] and 5.51 in data set [2] (Homo sapiens, HeLa S3, 72 h). In data set [3] (setting [5]), the response vs control in vivo at 500 mg/kg/day worked out at 50%.
With `O=C(CN(CCSc1ccc(O)cc1)CCSc1ccc(O)cc1)Nc1ncccn1` [Compound 211], the negative-log IC50 (pIC50) is 5.49 in data set [1] and 5.52 in data set [2] (Homo sapiens, HeLa S3, 72 h). The response vs control in vivo at 500 mg/kg/day in data set [3] (ip, 216 h, A2780 s.c. in nude mice, 500 mg/kg/day intraperitoneally once a day for 5 days, evaluation day 9) came to 37%.
For `OC[C@@H]1OC(N(CCSc2ccc(O)cc2)CCSc2ccc(O)cc2)[C@@H](O)[C@H](O)[C@H]1O` (some centres unmarked) [Compound 216], the pIC50 is 5.44 in data set [1] and 4.94 in data set [2] (Homo sapiens, HeLa S3, 72 h).
As for `OC[C@@H]1OC(N(CCSc2ccc(O)cc2)CCSc2ccc(O)cc2)[C@H](O)[C@H](O)[C@H]1O` (some centres unmarked) [Compound 218], the pIC50 in data set [1] is 5.30; in data set [2] (Homo sapiens, HeLa S3, 72 h), 4.63.
Consider `NC(=O)[C@H]1OC(N(CCSc2ccc(O)cc2)CCSc2ccc(O)cc2)[C@H](O)[C@@H](O)[C@@H]1O` (some centres unmarked) [Compound 219], for which the pIC50 in data set [1] was 5.45; in data set [2] (Homo sapiens, HeLa S3, 72 h), 4.60.
In the case of `COCC(=O)Oc1ccc(SCCN(CCSc2ccc(OC(=O)COC)cc2)CC(N)=O)cc1` [Compound 220], the pIC50 is 5.28 in data set [1] and 6.54 in data set [2] (Homo sapiens, HeLa S3, 72 h).
The corresponding values for `CNCC(=O)Oc1ccc(SCCN(CCSc2ccc(OC(=O)CNC)cc2)CC(N)=O)cc1` [Compound 222] are 6.37 and 6.44.
On to `CC(C)(CSc1ccc(O)cc1)C(=O)N1CCN(C(=O)C(C)(C)CSc2ccc(O)cc2)CC1` [Compound 227], for which the response vs control in vivo at 500 mg/kg/day in data set [3] (setting [5]) was determined as 53%.
